The values below come from patent US20240342292A1, “Compounds for the Degradation of EGFR Kinase” (BeiGene Switzerland GmbH, priority 2021, published 2024).

By DC50 is commonly meant the concentration at which degradation of the target reaches its halfway point. Read a high DC50 as a less potent degrader. For orientation: Dmax means the largest share of the target that was removed.

For one experiment, the target named is T1, L858R/T790M/C797S EGFR (Homo sapiens, UniProt P00533, C797S/L858R/T790M).
T1 construct: expressed in transfected cells; host or cells: H1975 clone #25 (lentiviral over-expression, endogenous EGFR knocked out by sgRNA)
The experiment is described as follows: EGFR degradation HTRF assay in H1975-clone #25 (LTC) cells. Type of experiment: cell-based. As to conditions: 16h treatment; for DC50: HTRF; for Dmax: NCI-H1975, H1975 # 25-LTC (L858R/T790M/C797S). The essentials: (§1)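 H1975 clones stably overexpressing mutant EGFR by lentivirus, with endogenous EGFR knocked out by sgRNA and homozygosity confirmed by sequencing, were treated 16 h at 37 °C with compounds in 0.2% DMSO medium, 8 doses from 10 uM in 5-fold dilution. Lysates were read by HTRF (665/620 nm); DC50 came from a four-parameter fit.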
A general note: TR-FRET usually uses a lanthanide donor and a delayed reading to cut background.

The test system of the next experiment is Del19/T790M/C797S EGFR. The experiment is described as follows: EGFR degradation HTRF assay in H1975-clone #28 (DTC) cells. Type of experiment: cell-based. Particulars: H1975 # 28 DTC (Del19/T790M/C797S), 16h treatment; for DC50: HTRF; for Dmax (%): maximum percentage of degradation. The gist of the method:
as §1

Setting [1] is: H1975 # 25-LTC (L858R/T790M/C797S).
The mark [2] stands for this setting: maximum percentage of degradation.

“And” between values parts separate entries of the source, which are not always exact repeats. Equal values may be shown once.

T1 sequence (P00533 25-1210 T790M/C797S/L858R): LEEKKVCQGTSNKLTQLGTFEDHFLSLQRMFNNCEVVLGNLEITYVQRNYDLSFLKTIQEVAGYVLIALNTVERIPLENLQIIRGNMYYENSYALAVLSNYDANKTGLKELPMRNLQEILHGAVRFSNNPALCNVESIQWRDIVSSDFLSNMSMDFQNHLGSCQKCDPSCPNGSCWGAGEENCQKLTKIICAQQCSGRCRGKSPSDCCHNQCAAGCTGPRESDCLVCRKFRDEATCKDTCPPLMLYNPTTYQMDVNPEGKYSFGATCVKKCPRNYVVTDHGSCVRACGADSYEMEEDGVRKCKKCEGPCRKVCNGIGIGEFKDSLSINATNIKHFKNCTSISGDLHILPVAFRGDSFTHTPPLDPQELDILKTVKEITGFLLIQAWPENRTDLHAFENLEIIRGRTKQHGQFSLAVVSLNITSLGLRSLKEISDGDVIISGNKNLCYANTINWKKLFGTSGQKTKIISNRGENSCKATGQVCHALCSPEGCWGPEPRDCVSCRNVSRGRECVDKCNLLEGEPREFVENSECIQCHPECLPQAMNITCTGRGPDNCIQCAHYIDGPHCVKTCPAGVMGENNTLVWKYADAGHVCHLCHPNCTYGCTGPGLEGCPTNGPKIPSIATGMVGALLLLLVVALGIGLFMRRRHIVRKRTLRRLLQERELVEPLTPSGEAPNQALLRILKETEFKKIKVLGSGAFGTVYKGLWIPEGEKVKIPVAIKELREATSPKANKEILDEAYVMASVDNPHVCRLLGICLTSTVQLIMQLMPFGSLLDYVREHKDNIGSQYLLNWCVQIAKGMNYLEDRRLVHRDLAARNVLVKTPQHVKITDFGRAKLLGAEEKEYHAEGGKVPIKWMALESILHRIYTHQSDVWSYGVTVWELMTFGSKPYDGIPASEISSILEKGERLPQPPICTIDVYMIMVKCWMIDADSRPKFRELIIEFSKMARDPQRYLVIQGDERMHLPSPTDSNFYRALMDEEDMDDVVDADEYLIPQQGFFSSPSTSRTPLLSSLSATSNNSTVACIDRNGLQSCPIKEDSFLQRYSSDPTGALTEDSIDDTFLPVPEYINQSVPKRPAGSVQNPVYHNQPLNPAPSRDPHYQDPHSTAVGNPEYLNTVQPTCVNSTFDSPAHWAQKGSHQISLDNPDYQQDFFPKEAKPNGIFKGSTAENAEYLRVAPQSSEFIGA

With `Cc1cc2cc(n1)-c1cnn(C)c1OCCC[C@@H](C)CN1/C(=N/C2=O)Nc2ccc(N(C)C(=O)C3CCN(CCc4cc(F)c([C@H]5CCC(=O)NC5=O)c(F)c4)CC3)cc21` [Example 365, 1-(4-((R)-2,6-dioxopiperidin-3-yl)-3,5-difluorophenethyl)-N-methyl-N—((R,E)-1^1,2^6,7-trimethyl-3-oxo-5^2,5^3-dihydro-1^1H,5^1H-11-oxa-4-aza-5(2,1)-benzo[d]imidazola-2(2,4)-pyridina-(4,5)-pyrazolacycloundecaphane-5^6-yl)piperidine-4-carboxamide], the half-maximal degradation concentration (DC50) was 0.878 nM at L858R/T790M/C797S EGFR (setting [1]) and 0.625 nM in the experiment with Del19/T790M/C797S EGFR. This compound also returned a Dmax at L858R/T790M/C797S EGFR (setting [2]) of 91.1%. For the same compound, in the experiment with Del19/T790M/C797S EGFR, the “Dmax (%)” value is listed as 80.74%.

Turning to `Cc1cc2cc(n1)-c1cnn(C)c1OCC[C@H]1C[C@@H]1CN1/C(=N/C2=O)Nc2ccc(NC3CN(C4CCN(c5cc(F)c([C@H]6CCC(=O)NC6=O)c(F)c5)CC4)C3)cc21` [Example 455, (R)-3-(4-(4-(3-(((71S,72R,E)-1^1,2^6-dimethyl-3-oxo-5^2,5^3-dihydro-1^1H,5^1H-10-oxa-4-aza-5(2,1)-benzo[d]imidazola-2(2,4)-pyridina-1(4,5)-pyrazola-7(1,2)-cyclopropanacyclodecaphane-5^6-yl)amino)azetidin-1-yl)piperidin-1-yl)-2,6-difluorophenyl)piperidine-2,6-dione], the DC50 was determined as 0.537 nM at L858R/T790M/C797S EGFR (setting [1]) and 0.912 nM in the experiment on Del19/T790M/C797S EGFR. This compound came in with a Dmax on L858R/T790M/C797S EGFR (setting [2]) of 90.8%. Further, in the experiment on Del19/T790M/C797S EGFR, the “Dmax (%)” value is recorded as 85.22%.

As to `Cc1cc2cc(n1)-c1cnn(C)c1OCCC[C@@H](C)CN1/C(=N/C2=O)Nc2ccc(C(=O)N(C)C3CCN(C4CN(c5cc(F)c([C@H]6CCC(=O)NC6=O)c(F)c5)C4)CC3)cc21` [Example 290, (R,E)-N-(1-(1-(4-((R)-2,6-dioxopiperidin-3-yl)-3,5-difluorophenyl)azetidin-3-yl)piperidin-4-yl)-N,1′,2^6,7-tetramethyl-3-oxo-5^2,5′-dihydro-1^1H,5^1H-11-oxa-4-aza-5(2,1)-benzo[d]imidazola-2(2,4)-pyridina-1(4,5)-pyrazolacycloundecaphane-5^6-carboxamide], on L858R/T790M/C797S EGFR (setting [1]), the DC50 came to 0.644 nM. In addition, the Dmax on L858R/T790M/C797S EGFR (setting [2]) amounted to 89.1%. For the same compound, in the experiment on Del19/T790M/C797S EGFR, it took 0.64 nM to reach half-maximal degradation (DC50) and the “Dmax (%)” value was determined as 80.73%.

`Cc1cc2cc(n1)-c1cnn(C)c1OCCC[C@@H](C)CN1/C(=N/C2=O)Nc2ccc(N3CCN(CC4CN(c5cc(F)c([C@H]6CCC(=O)NC6=O)c(F)c5)C4)CC3)cc21` [Example 321, (R)-3-(2,6-difluoro-4-(3-((4-((R,E)-1^1,2^6,7-trimethyl-3-oxo-5^2,5^3-dihydro-1^1H,5^1H-11-oxa-4-aza-5(2,1)-benzo[d]imidazola-2(2,4)-pyridina-1(4,5)-pyrazolacycloundecaphane-5^6-yl)piperazin-1-yl)methyl)azetidin-1-yl)phenyl)piperidine-2,6-dione]: the DC50 on L858R/T790M/C797S EGFR (setting [1]) was 1.17 nM. Further, the Dmax on L858R/T790M/C797S EGFR (setting [2]) amounted to 88.2%. In the experiment on Del19/T790M/C797S EGFR, the 50% degradation concentration (DC50) was 1.18 nM and the “Dmax (%)” value is 73.52%.

As for `Cc1cc2cc(n1)-c1cnn(C)c1OCCC[C@@H](C)CN1/C(=N/C2=O)Nc2ccc(C(=O)N3CC4(C3)CN(C(=O)C3CN(c5cc(F)c([C@H]6CCC(=O)NC6=O)c(F)c5)C3)C4)cc21` [Example 229, (R)-3-(2,6-difluoro-4-(3-(6-((R,E)-1^1,2^6,7-trimethyl-3-oxo-5^2,5^3-dihydro-1^1H,5^1H-11-oxa-4-aza-5(2,1)-benzo[d]imidazola-2(2,4)-pyridina-1(4,5)-pyrazolacycloundecaphane-5^6-carbonyl)-2,6-diazaspiroheptane-2-carbonyl)azetidin-1-yl)phenyl)piperidine-2,6-dione], the figures for the 50% degradation concentration (DC50) at L858R/T790M/C797S EGFR (setting [1]) and with Del19/T790M/C797S EGFR were 1.27 nM and 1.79 nM, respectively. This compound also had a Dmax at L858R/T790M/C797S EGFR (setting [2]) of 86.9%. Further, the “Dmax (%)” value with Del19/T790M/C797S EGFR amounted to 78.12%.

Turning to `Cc1cc2cc(n1)-c1cnn(C)c1OCCC[C@@H](C)CN1/C(=N/C2=O)Nc2ccc(C(=O)N(C)[C@H]3CCN(CCc4cc(F)c([C@H]5CCC(=O)NC5=O)c(F)c4)[C@H](C)C3)cc21` [Example 259, (R,E)-N—((2R,4S)-1-(4-((R)-2,6-dioxopiperidin-3-yl)-3,5-difluorophenethyl)-2-methylpiperidin-4-yl)-N,1^1,2^6,7-tetramethyl-3-oxo-5^2,5^3-dihydro-1^1H,5^1H-11-oxa-4-aza-5(2,1)-benzo[d]imidazola-2(2,4)-pyridina-1(4,5)-pyrazolacycloundecaphane-5^6-carboxamide], the DC50 on L858R/T790M/C797S EGFR (setting [1]) is 0.841 nM; in the experiment on Del19/T790M/C797S EGFR, 0.725 nM. The same compound had a Dmax on L858R/T790M/C797S EGFR (setting [2]) of 89.2%. In the experiment on Del19/T790M/C797S EGFR, the “Dmax (%)” value came to 83.21%.

`CCN(CCN1CCN(c2cc(F)c([C@H]3CCC(=O)NC3=O)c(F)c2)CC1)C(=O)c1ccc2c(c1)N1C[C@H](C)CCCOc3c(cnn3C)-c3cc(cc(C)n3)C(=O)/N=C/1N2` [Example 281, (R,E)-N-(2-(4-(4-((R)-2,6-dioxopiperidin-3-yl)-3,5-difluorophenyl)piperazin-1-yl)ethyl)-N-ethyl-1′,2^6,7-trimethyl-3-oxo-5^2,5^3-dihydro-1^1H,5^1H-11-oxa-4-aza-5(2,1)-benzo[d]imidazola-2(2,4)-pyridina-1(4,5)-pyrazolacycloundecaphane-5^6-carboxamide]: on L858R/T790M/C797S EGFR (setting [1]), the DC50 came out at 0.411 nM. The compound further registered a Dmax on L858R/T790M/C797S EGFR (setting [2]) of 90.4%. In the experiment with Del19/T790M/C797S EGFR, half-maximal degradation (DC50) was put at 0.501 nM and the “Dmax (%)” value was found to be 75.01%.

On to `Cc1cc2cc(n1)-c1cnn(C)c1OCCC[C@@H](C)CN1/C(=N/C2=O)Nc2ccc(NC3CN(C4CCN(c5cc(F)c([C@H]6CCC(=O)NC6=O)c(F)c5)CC4)C3)cc21` [Example 459, (R)-3-(2,6-difluoro-4-(4-(3-(((R,E)-1^1,2^6,7-trimethyl-3-oxo-5^2,5^3-dihydro-1^1H,5^1H-11-oxa-4-aza-5(2,1)-benzo[d]imidazola-2(2,4)-pyridina-1(4,5)-pyrazolacycloundecaphane-5^6-yl)amino)azetidin-1-yl)piperidin-1-yl)phenyl)piperidine-2,6-dione], for which half-maximal degradation at L858R/T790M/C797S EGFR (setting [1]) (DC50) was put at 0.431 nM. Further, the maximal degradation (Dmax) on L858R/T790M/C797S EGFR (setting [2]) turned out to be 84.1%. In addition, in the experiment on Del19/T790M/C797S EGFR, it took 0.624 nM to reach half-maximal degradation (DC50) and the “Dmax (%)” value was found to be 73.95%.

Take `Cc1cc2cc(n1)-c1cnn(C)c1OCC[C@H]1C[C@@H]1CN1/C(=N/C2=O)Nc2ccc(N3CCN(C[C@H]4C[C@H](Nc5cc(F)c([C@H]6CCC(=O)NC6=O)c(F)c5)C4)CC3)cc21` [Example 457, (R)-3-(4-(((1S,3R)-3-((4-((7^1S,7^2R,E)-1^1,2^6-dimethyl-3-oxo-5^2,5^3-dihydro-1^1H,5^1H-10-oxa-4-aza-5(2,1)-benzo[d]imidazola-2(2,4)-pyridina-1(4,5)-pyrazola-7(1,2)-cyclopropanacyclodecaphane-5^6-yl)piperazin-1-yl)methyl)cyclobutyl)amino)-2,6-difluorophenyl)piperidine-2,6-dione]: half-maximal degradation on L858R/T790M/C797S EGFR (setting [1]) (DC50) was put at 0.632 nM. At L858R/T790M/C797S EGFR (setting [2]), this compound returned a Dmax of 92.8%. In addition, in the experiment with Del19/T790M/C797S EGFR, the half-maximal degradation concentration (DC50) came to 0.709 nM and the “Dmax (%)” value is reported as 91.81%.

On L858R/T790M/C797S EGFR (setting [1]), `Cc1cc2cc(n1)-c1cnn(C)c1OCC[C@H]1C[C@@H]1CN1/C(=N/C2=O)Nc2ccc(N3CCN([C@H]4C[C@H](Nc5cc(F)c([C@H]6CCC(=O)NC6=O)c(F)c5)C4)CC3)cc21` (single isomer, unassigned) [Example 443] returned a DC50 of 1.25 nM. The compound also showed a Dmax at L858R/T790M/C797S EGFR (setting [2]) of 86.6%. Further, in the experiment with Del19/T790M/C797S EGFR, half-maximal degradation (DC50) was put at 0.633 nM and the “Dmax (%)” value is recorded as 78.26%.

Regarding `Cc1cc2cc(n1)-c1cnn(C3CC3)c1OCCC[C@@H](C)CN1/C(=N/C2=O)Nc2ccc(CN3CCN(C(=O)[C@H]4CN(c5cc(F)c([C@H]6CCC(=O)NC6=O)c(F)c5)CC4(C)C)CC3)cc21` [Example 165, (R)-3-(4-((R)-4-(4-(((R,E)-11-cyclopropyl-2^6,7-dimethyl-3-oxo-5^2,5^3-dihydro-1^1H,5^1H-11-oxa-4-aza-5(2,1)-benzo[d]imidazola-2(2,4)-pyridina-1(4,5)-pyrazolacycloundecaphane-5^6-)n-methyl)piperazine-1-carbonyl)-3,3-dimethylpyrrolidin-1-yl)-2,6-difluorophenyl)piperidine-2,6-dione], the half-maximal degradation concentration (DC50) was 3.1 nM at L858R/T790M/C797S EGFR (setting [1]) and 2.95 nM in the experiment with Del19/T790M/C797S EGFR. This compound also yielded a Dmax at L858R/T790M/C797S EGFR (setting [2]) of 79.9%. Also, the “Dmax (%)” value with Del19/T790M/C797S EGFR is on record as 74.73%.

Regarding `Cc1cc2cc(n1)-c1cnn(C)c1OCCC[C@@H](C)CN1/C(=N/C2=O)Nc2ccc(C(=O)N[C@@H]3CCN(CCc4cc(F)c([C@H]5CCC(=O)NC5=O)c(F)c4)C[C@H]3F)cc21` [Example 345, (R,E)-N—((3R,4R)-1-(4-((R)-2,6-dioxopiperidin-3-yl)-3,5-difluorophenethyl)-3-fluoropiperidin-4-yl)-1^1,2^6,7-trimethyl-3-oxo-5^2,5^3-dihydro-1^1H,5^1H-11-oxa-4-aza-5(2,1)-benzo[d]imidazola-2(2,4)-pyridina-1(4,5)-pyrazolacycloundecaphane-5^6-carboxamide], the DC50 at L858R/T790M/C797S EGFR (setting [1]) is 0.634 nM and 0.6 nM; in the experiment with Del19/T790M/C797S EGFR, 0.662 nM and 0.7 nM. Besides, the “Dmax (%)” value at L858R/T790M/C797S EGFR (H1975 # 25-LTC (L858R/T790M/C797S), maximum percentage of degradation) was 92.5%; with Del19/T790M/C797S EGFR it was 74.46% and 74.5%. At L858R/T790M/C797S EGFR (setting [2]), this compound gave a Dmax of 92.5%.
